The target of assay [1] is T1, Cytochrome P450 isoenzyme 3A4 (Homo sapiens, UniProt P08684).
T1 construct: host or cells: baculovirus/insect cells
Briefly: Cytochrome P450 inhibition (Crespi et al.). Type of assay: in vitro ADME. As to conditions: baculovirus/insect cell-expressed human isoenzyme 3A4. The protocol: Cytochrome P450 Inhibition
The Cytochrome P450 inhibition was performed according to the publication of Crespi et al. (Anal. Biochem., 248, 188–190 (1997)) with use of the baculovirus/insect cell-expressed and human Cytochrome P450 isoenzyme (3A4).

For a further assay, the target named is VEGFR II (KDR) (Homo sapiens, UniProt P35968). Nature of the assay: Inhibition of the KDR kinase activity (33P-ATP, poly-(Glu4Tyr) filter assay). The format is biochemical. The procedure: • Stock Solutions • Stock solution A: 3 mmol of ATP in water, pH 7.0 (−70° C.) • Stock solution B: g-33P-ATP 1 mCi/100 μl • Stock solution C: poly-(Glu4Tyr) 10 mg/ml in water • Solution for Dilutions • Substrate solvent: 10 mmol of DTT, 10 mmol of manganese chloride, 100 mmol of magnesium chloride • Enzyme solution: 120 mmol of tris/HCl, pH 7.5, 10 μM of sodium vanadium oxide Sample Application 1 Inhibition of the KDR- and FLT-1 Kinase Activity in the Presence of the Compounds According to the Invention
In a microtiter plate (without protein binding) that tapers to a point, 10 μl of substrate mix (10 μl of volume of ATP stock solution A+25 μCi of g-33P-ATP (about 2.5 μl of stock solution B)+30 μl of poly-(Glu4Tyr) stock solution C+1.21 ml of substrate solvent), 10 μl of inhibitor solution (substances corresponding to the dilutions, 3% DMSO in substrate solvent as a control) and 10 μl of enzyme solution (11.25 μg of enzyme stock solution (KDR, FLT-1 or FLT-4 kinase) are added at 4° C. in 1.25 ml of enzyme solution (dilute). It is thoroughly mixed and incubated for 10 minutes at room temperature. Then, 10 μl of stop solution (250 mmol of EDTA, pH 7.0) is added, mixed, and 10 μl of the solution is transferred to a P 81 phosphocellulose filter. […] The filter paper is dried, coated with Meltilex, and measured in a microbeta counter. […]

Where two headings read alike, the source gives them in different places.

The IC50 is the concentration at which inhibition is half-maximal.

T1 sequence (P08684 whole entry): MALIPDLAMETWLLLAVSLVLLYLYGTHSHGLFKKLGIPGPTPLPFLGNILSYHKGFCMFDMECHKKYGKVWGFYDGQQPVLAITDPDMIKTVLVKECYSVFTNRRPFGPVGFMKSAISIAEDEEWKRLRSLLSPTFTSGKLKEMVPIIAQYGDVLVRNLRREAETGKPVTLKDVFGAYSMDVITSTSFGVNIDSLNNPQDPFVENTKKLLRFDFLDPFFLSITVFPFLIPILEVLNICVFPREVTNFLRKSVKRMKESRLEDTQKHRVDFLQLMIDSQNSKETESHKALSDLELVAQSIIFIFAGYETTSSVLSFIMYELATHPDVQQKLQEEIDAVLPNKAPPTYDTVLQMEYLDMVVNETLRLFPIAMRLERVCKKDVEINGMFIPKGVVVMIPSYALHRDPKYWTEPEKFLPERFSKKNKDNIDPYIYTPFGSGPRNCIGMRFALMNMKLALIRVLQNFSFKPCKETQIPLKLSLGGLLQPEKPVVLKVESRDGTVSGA
Sequence of VEGFR II (KDR) (P35968 20-1356, species assumed): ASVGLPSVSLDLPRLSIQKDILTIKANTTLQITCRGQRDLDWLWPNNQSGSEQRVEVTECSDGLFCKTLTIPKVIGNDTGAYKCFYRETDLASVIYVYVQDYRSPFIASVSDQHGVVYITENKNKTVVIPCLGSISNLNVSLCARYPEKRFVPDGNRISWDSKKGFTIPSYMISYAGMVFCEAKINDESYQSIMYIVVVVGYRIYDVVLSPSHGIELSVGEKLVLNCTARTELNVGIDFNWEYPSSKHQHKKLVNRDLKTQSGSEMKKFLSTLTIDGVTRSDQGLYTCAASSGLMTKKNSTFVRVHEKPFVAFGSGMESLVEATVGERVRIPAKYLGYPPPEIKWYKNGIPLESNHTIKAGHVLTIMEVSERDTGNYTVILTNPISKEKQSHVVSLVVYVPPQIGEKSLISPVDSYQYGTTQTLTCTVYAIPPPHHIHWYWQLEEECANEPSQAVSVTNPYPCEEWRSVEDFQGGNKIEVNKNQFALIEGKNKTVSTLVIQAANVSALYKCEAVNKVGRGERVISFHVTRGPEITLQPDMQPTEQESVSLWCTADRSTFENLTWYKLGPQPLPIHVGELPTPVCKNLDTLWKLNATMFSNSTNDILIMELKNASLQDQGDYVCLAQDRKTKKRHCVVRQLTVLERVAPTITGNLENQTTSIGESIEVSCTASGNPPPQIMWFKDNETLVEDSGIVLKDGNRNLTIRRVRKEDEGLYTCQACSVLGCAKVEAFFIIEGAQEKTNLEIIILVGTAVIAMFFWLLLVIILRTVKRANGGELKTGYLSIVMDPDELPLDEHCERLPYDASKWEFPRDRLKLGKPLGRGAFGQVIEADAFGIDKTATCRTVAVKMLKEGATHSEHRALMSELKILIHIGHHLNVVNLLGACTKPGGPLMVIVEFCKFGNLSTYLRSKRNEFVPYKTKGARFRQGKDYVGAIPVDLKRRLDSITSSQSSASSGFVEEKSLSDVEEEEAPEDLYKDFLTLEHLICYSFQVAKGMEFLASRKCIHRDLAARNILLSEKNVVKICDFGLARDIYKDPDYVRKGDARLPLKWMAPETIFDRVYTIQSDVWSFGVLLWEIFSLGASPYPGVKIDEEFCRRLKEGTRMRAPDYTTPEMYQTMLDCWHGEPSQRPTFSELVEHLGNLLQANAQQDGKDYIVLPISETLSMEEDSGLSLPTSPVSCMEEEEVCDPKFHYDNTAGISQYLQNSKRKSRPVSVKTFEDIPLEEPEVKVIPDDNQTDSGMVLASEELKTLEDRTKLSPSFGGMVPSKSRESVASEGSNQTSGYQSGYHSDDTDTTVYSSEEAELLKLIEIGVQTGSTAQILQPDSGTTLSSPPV

`O=C(Nc1ccc(OC(F)(F)F)cc1)c1ccccc1NCc1ccc(=O)[nH]c1` [Example 1.0, 2-[(6-Oxo-1,6-dihydro-pyridin-3-ylmethyl)-amino]-N-(4-trifluoromethoxy-phenyl)-benzamide]: the IC50 in assay [1] (read-out: Inhibition of Cyp 450 3A4 (IC50)) turned out to be 5600 nM; on VEGFR II (KDR), 56 nM.

As for `O=C(Nc1ccc(OCC(F)(F)F)cc1)c1ccccc1NCc1ccc(=O)[nH]c1` [Example 1.5], the IC50 was determined as 11000 nM in assay [1] (heading: Inhibition of Cyp 450 3A4) and 59 nM on VEGFR II (KDR).

(Values after patent US7202260B2, “VEGFR-2 and VEGFR-3 inhibitory anthranilamide pyridones” (Schering AG, priority 2003, dated 2007).)
